# Molecular target: CDC7/DBF4 (Cell division cycle 7-related protein kinase/Activator of S phase kinase) (Homo sapiens, UniProt O00311)
# Assay: Inhibition of Cdc7/Dbf4 (unknown origin) using 1 uM of ATP as substrate by AlphaScreen assay
# Type: protein-complex assay
# Sequence of CDC7/DBF4 (Cell division cycle 7-related protein kinase/Activator of S phase kinase) (Q9UBU7 whole entry): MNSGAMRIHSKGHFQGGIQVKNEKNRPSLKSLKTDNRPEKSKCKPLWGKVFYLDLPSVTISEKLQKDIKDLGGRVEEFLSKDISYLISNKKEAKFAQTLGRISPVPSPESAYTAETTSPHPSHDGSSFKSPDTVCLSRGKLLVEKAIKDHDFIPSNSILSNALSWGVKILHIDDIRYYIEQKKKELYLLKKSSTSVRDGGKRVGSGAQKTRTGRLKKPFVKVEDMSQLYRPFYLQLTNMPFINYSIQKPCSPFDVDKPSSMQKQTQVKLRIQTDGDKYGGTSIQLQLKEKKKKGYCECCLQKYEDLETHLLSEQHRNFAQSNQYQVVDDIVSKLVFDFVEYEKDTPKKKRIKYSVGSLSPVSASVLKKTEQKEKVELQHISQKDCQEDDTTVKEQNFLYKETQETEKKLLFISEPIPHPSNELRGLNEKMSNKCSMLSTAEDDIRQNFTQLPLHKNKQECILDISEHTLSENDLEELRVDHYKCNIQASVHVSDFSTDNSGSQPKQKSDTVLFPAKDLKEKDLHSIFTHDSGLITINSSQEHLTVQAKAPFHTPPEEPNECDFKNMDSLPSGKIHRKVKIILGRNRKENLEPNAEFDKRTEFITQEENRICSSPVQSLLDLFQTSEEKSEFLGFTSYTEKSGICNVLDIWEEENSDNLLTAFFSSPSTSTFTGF
# Sequence of CDC7/DBF4 (Cell division cycle 7-related protein kinase/Activator of S phase kinase) (O00311 whole entry): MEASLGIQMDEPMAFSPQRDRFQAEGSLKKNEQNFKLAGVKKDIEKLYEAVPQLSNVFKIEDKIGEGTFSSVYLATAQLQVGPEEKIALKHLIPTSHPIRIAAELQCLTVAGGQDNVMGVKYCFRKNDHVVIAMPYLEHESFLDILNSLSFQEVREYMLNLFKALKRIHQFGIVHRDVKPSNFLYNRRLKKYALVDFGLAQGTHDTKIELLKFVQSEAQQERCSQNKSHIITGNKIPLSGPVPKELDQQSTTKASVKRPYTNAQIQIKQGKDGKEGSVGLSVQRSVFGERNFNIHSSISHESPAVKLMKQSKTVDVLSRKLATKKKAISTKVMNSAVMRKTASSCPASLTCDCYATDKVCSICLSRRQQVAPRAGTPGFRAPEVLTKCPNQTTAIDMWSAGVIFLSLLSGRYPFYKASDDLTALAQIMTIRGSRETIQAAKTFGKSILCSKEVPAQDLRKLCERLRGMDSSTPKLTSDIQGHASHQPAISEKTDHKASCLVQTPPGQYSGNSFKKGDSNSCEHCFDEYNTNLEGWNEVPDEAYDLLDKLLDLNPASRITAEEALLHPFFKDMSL
compound,measurement,value
NC(=O)c1sc(-c2ccnc(N)n2)nc1-c1ccc(Cl)cc1Cl,IC50,10 nM

# — ChEMBL document CHEMBL3259739, “Synthesis and structure-activity relationship of trisubstituted thiazoles as Cdc7 kinase inhibitors” (Eur J Med Chem, 2014)
